Experimental data reported in patent US20260098061A1, “EPHA2-BINDING PENDING PEPTIDE AND COMPOSITION COMPRISING SAME” (PeptiDream Inc., priority 2022, published 2026).
Numbered stars: 1 amine (or outer) side, 2 acyl side, 3 side chain; on linkers, the order of the positions; unused ones are H or OH. Bridge positions count the residues as written; N and C are the ends. Square brackets hold non-standard residues; d marks the D form. Side chains are listed from the residue outwards. Peptide text beside a SMILES is read from it. * marks the point of attachment. X1 = CC(C)C[C@H](CC(=O)[C@H](CC(N)=O)N[*:1])C(=O)[*:2]; Piperazinyl(4-CH2COOH) = O=C(O)CN1CCN(*)CC1; Trp(1-Me) = Cn1cc(C[C@H](N)C(=O)O)c2ccccc21; NMe3Pal = CN[C@@H](Cc1cccnc1)C(=O)O; NMeF = CN[C@@H](Cc1ccccc1)C(=O)O; NMeE = CN[C@@H](CCC(=O)O)C(=O)O; Aad = N[C@@H](CCCC(=O)O)C(=O)O; CO = O=C([*:1])[*:2]; βAla = NCCC(=O)O

Molecular target: T1, Recombinant Human EphA2 Fc Protein (Homo sapiens, UniProt P29317)
T1 construct: purchased Elabscience
Test: SPR interaction analysis (Biacore T200), kinetics of peptides against EphA2
Type: binding
Conditions: Recombinant Human EphA2 Fc Protein captured by Human Antibody Capture kit; single-cycle kinetics; 25° C.; HBS-P+ buffer with 1% DMSO
Procedure: Example 14 Interaction Analysis by SPR was Performed Using Biacore (Cytiva)
SPR assay was performed using Biacore T200 (Cytiva).
The HBS-P+ buffer (10 mM HEPES (pH7.4), 150 mM NaCl, 0.05% (v/V) Surfactant P20) containing 1% DMSO was used as running buffer. Recombinant Human EphA2 Fc Protein (Fc tag, Elabscience) was captured by Human Antibody Capture kit (Cytiva). Peptide samples in DMSO were diluted with running buffer, and prepared five serial dilutions. Using these serial dilutions, kinetics of peptides against EphA2 was measured at a flow rate of 30 mL/min at 25° C. The method adopted for sample measurement was a single-cycle kinetics method. The analysis was conducted using the evaluation software 3.0 provided with Biacore T200. Kinetics fitting was done on the difference data obtained by subtracting the baseline data from sample measurement data. KD values were calculated based on the association rate constant (ka) and dissociation rate constant (kd).

Row | SMILES | Kd [nM]
1 | CC(C)C[C@@H]1NC(=O)[C@H](CC(N)=O)NC(=O)[C@H](Cc2ccccc2)N(C)C(=O)[C@@H](C)NC(=O)CSC[C@@H](C(N)=O)NC(=O)[C@H](CCC(=O)O)NC(=O)[C@H]([C@@H](C)O)NC(=O)[C@H](Cc2cn(C)c3ccccc23)NC(=O)[C@H](C(C)C)NC(=O)[C@H](Cc2cn(C)c3ccccc23)NC(=O)[C@H](Cc2ccccc2)N(C)C(=O)[C@H](CCCC(=O)O)NC1=O [PDC_EphA2-00001417, da-MeF-N-L-Hgl-MeF-W1Me-V-W1Me-T-E-C-NH2] ({CH2CO}-[dA][NMeF]NL[Aad][NMeF][Trp(1-Me)]V[Trp(1-Me)]TEC-NH2; thioether N-12) | 1 to 10
2 | CC(=O)NCCCC[C@@H](NC(=O)CCNC(=O)[C@@H]1CSCC(=O)N[C@H](C)C(=O)N(C)[C@@H](Cc2cccnc2)C(=O)N[C@@H](CC(N)=O)C(=O)N[C@@H](CC(C)C)C(=O)N[C@@H](CCCC(N)=O)C(=O)N(C)[C@@H](CCC(=O)O)C(=O)N[C@@H](Cc2cn(C)c3ccccc23)C(=O)N[C@@H](CCCCNC(=O)N2CCN(CC(=O)O)CC2)C(=O)N[C@@H](Cc2cn(C)c3ccccc23)C(=O)N[C@@H]([C@@H](C)O)C(=O)N[C@@H](CCCC(N)=O)C(=O)N1)C(N)=O [PDC_EphA2-00007196, da-Me3Py-N-L-Hgn-MeE-W1Me-KCOpipzaa-W1Me-T-Hgn-C-bA-dkAc-NH2] ({CH2CO}-[dA][NMe3Pal]NL[Aad](NH2)[NMeE][Trp(1-Me)]K([CO-Piperazinyl(4-CH2COOH)])[Trp(1-Me)]T[Aad](NH2)C[βAla][dK](Ac)-NH2; thioether N-12) | < 1
3 | CC(=O)NCCCC[C@@H](NC(=O)CCNC(=O)[C@@H]1CSCC(=O)N[C@H](C)C(=O)N(C)[C@@H](Cc2ccccc2)C(=O)N[C@@H](CC(N)=O)C(=O)N[C@@H](CC(C)C)C(=O)N[C@@H](CCCC(=O)O)C(=O)N(C)[C@@H](Cc2ccccc2)C(=O)N[C@@H](Cc2cn(C)c3ccccc23)C(=O)N[C@@H](C(C)C)C(=O)N[C@@H](Cc2cn(C)c3ccccc23)C(=O)N[C@@H]([C@@H](C)O)C(=O)N[C@@H](CCC(=O)O)C(=O)N1)C(N)=O [PDC_EphA2-00008082, da-MeF-N-L-Hgl-MeF-W1Me-V-W1Me-T-E-C-bA-dkAc-NH2] ({CH2CO}-[dA][NMeF]NL[Aad][NMeF][Trp(1-Me)]V[Trp(1-Me)]TEC[βAla][dK](Ac)-NH2; thioether N-12) | < 1
4 | CC(=O)NCCCC[C@@H](NC(=O)CCNC(=O)[C@@H]1CSCC(=O)N[C@H](C)C(=O)N(C)[C@@H](Cc2cccnc2)C(=O)N[C@@H](CC(N)=O)C(=O)C[C@@H](CC(C)C)C(=O)N[C@@H](CCCC(=O)O)C(=O)N(C)[C@@H](Cc2ccccc2)C(=O)N[C@@H](Cc2cn(C)c3ccccc23)C(=O)N[C@@H](C(C)C)C(=O)N[C@@H](Cc2cn(C)c3ccccc23)C(=O)N[C@@H]([C@@H](C)O)C(=O)N[C@@H](CCC(=O)O)C(=O)N1)C(N)=O [PDC_EphA2-00008083, da-Me3Py-N-L-Hgl-MeF-W1Me-V-W1Me-T-E-C-bA-dkAc-NH2] ({CH2CO}-[dA][NMe3Pal][X1][Aad][NMeF][Trp(1-Me)]V[Trp(1-Me)]TEC[βAla][dK](Ac)-NH2; thioether N-11) | < 1
5 | CC(=O)NCCCC[C@@H](NC(=O)CCNC(=O)[C@@H]1CSCC(=O)N[C@H](CCCCNC(=O)N2CCN(CC(=O)O)CC2)C(=O)N(C)[C@@H](Cc2cccnc2)C(=O)N[C@@H](CC(N)=O)C(=O)N[C@@H](CC(C)C)C(=O)N[C@@H](CCCC(=O)O)C(=O)N(C)[C@@H](Cc2ccccc2)C(=O)N[C@@H](Cc2cn(C)c3ccccc23)C(=O)N[C@@H](C(C)C)C(=O)N[C@@H](Cc2cn(C)c3ccccc23)C(=O)N[C@@H]([C@@H](C)O)C(=O)N[C@@H](CCC(=O)O)C(=O)N1)C(N)=O [PDC_EphA2-00008084, dkCOpipzaa-Me3Py-N-L-Hgl-MeF-W1Me-V-W1Me-T-E-C-bA-dkAc-NH2] ({CH2CO}-[dK]([CO-Piperazinyl(4-CH2COOH)])[NMe3Pal]NL[Aad][NMeF][Trp(1-Me)]V[Trp(1-Me)]TEC[βAla][dK](Ac)-NH2; thioether N-12) | 1 to 10
6 | CC(=O)NCCCC[C@@H](NC(=O)CCNC(=O)[C@@H]1CSCC(=O)N[C@H](CCCCNC(=O)N2CCN(CC(=O)O)CC2)C(=O)N(C)[C@@H](Cc2cccnc2)C(=O)N[C@@H](CC(N)=O)C(=O)N[C@@H](CC(C)C)C(=O)N[C@@H](CCCCNC(=O)N2CCN(CC(=O)O)CC2)C(=O)N(C)[C@@H](Cc2ccccc2)C(=O)N[C@@H](Cc2cn(C)c3ccccc23)C(=O)N[C@@H](C(C)C)C(=O)N[C@@H](Cc2cn(C)c3ccccc23)C(=O)N[C@@H]([C@@H](C)O)C(=O)N[C@@H](CCC(=O)O)C(=O)N1)C(N)=O [PDC_EphA2-00008085, dkCOpipzaa-Me3Py-N-L-KCOpipzaa-MeF-W1Me-V-W1Me-T-E-C-bA-dkAc-NH2] ({CH2CO}-[dK]([CO-Piperazinyl(4-CH2COOH)])[NMe3Pal]NLK([CO-Piperazinyl(4-CH2COOH)])[NMeF][Trp(1-Me)]V[Trp(1-Me)]TEC[βAla][dK](Ac)-NH2; thioether N-12) | 1 to 10
7 | CC(=O)NCCCC[C@@H](NC(=O)CCNC(=O)[C@@H]1CSCC(=O)N[C@H](CCCCNC(=O)N2CCN(CC(=O)O)CC2)C(=O)N(C)[C@@H](Cc2cccnc2)C(=O)N[C@@H](CC(N)=O)C(=O)N[C@@H](CC(C)C)C(=O)N[C@@H](CCCCNC(=O)N2CCN(CC(=O)O)CC2)C(=O)N(C)[C@@H](Cc2ccccc2)C(=O)N[C@@H](Cc2cn(C)c3ccccc23)C(=O)N[C@@H](C(C)C)C(=O)N[C@@H](Cc2cn(C)c3ccccc23)C(=O)N[C@@H]([C@@H](C)O)C(=O)N[C@@H](CCCC(N)=O)C(=O)N1)C(N)=O [PDC_EphA2-00008086, dkCOpipzaa-Me3Py-N-L-KCOpipzaa-MeF-W1Me-V-W1Me-T-Hgn-C-bA-dkAc-NH2] ({CH2CO}-[dK]([CO-Piperazinyl(4-CH2COOH)])[NMe3Pal]NLK([CO-Piperazinyl(4-CH2COOH)])[NMeF][Trp(1-Me)]V[Trp(1-Me)]T[Aad](NH2)C[βAla][dK](Ac)-NH2; thioether N-12) | < 1
8 | CC(=O)NCCCC[C@@H](NC(=O)CCNC(=O)[C@@H]1CSCC(=O)N[C@H](C)C(=O)N(C)[C@@H](Cc2cccnc2)C(=O)N[C@@H](CC(N)=O)C(=O)N[C@@H](CC(C)C)C(=O)N[C@@H](CCCC(=O)O)C(=O)N(C)[C@@H](Cc2ccccc2)C(=O)N[C@@H](Cc2cn(C)c3ccccc23)C(=O)N[C@@H](CCCCNC(=O)N2CCN(CC(=O)O)CC2)C(=O)N[C@@H](Cc2cn(C)c3ccccc23)C(=O)N[C@@H]([C@@H](C)O)C(=O)N[C@@H](CCC(=O)O)C(=O)N1)C(N)=O [PDC_EphA2-00008087, da-Me3Py-N-L-Hgl-MeF-W1Me-KCOpipzaa-W1Me-T-E-C-bA-dkAc-NH2] ({CH2CO}-[dA][NMe3Pal]NL[Aad][NMeF][Trp(1-Me)]K([CO-Piperazinyl(4-CH2COOH)])[Trp(1-Me)]TEC[βAla][dK](Ac)-NH2; thioether N-12) | < 1
9 | CC(=O)NCCCC[C@@H](NC(=O)CCNC(=O)[C@@H]1CSCC(=O)N[C@H](C)C(=O)N(C)[C@@H](Cc2cccnc2)C(=O)N[C@@H](CC(N)=O)C(=O)N[C@@H](CC(C)C)C(=O)N[C@@H](CCCCNC(=O)N2CCN(CC(=O)O)CC2)C(=O)N(C)[C@@H](Cc2ccccc2)C(=O)N[C@@H](Cc2cn(C)c3ccccc23)C(=O)N[C@@H](CCCCNC(=O)N2CCN(CC(=O)O)CC2)C(=O)N[C@@H](Cc2cn(C)c3ccccc23)C(=O)N[C@@H]([C@@H](C)O)C(=O)N[C@@H](CCC(=O)O)C(=O)N1)C(N)=O [PDC_EphA2-00008088, da-Me3Py-N-L-KCOpipzaa-MeF-W1Me-KCOpipzaa-W1Me-T-E-C-bA-dkAc-NH2] ({CH2CO}-[dA][NMe3Pal]NLK([CO-Piperazinyl(4-CH2COOH)])[NMeF][Trp(1-Me)]K([CO-Piperazinyl(4-CH2COOH)])[Trp(1-Me)]TEC[βAla][dK](Ac)-NH2; thioether N-12) | < 1
10 | CC(=O)NCCCC[C@H](NC(=O)[C@@H]1CSCC(=O)N[C@H](C)C(=O)N(C)[C@@H](Cc2cccnc2)C(=O)N[C@@H](CC(N)=O)C(=O)N[C@@H](CC(C)C)C(=O)N[C@@H](CCCCNC(=O)N2CCN(CC(=O)O)CC2)C(=O)N(C)[C@@H](Cc2ccccc2)C(=O)N[C@@H](Cc2cn(C)c3ccccc23)C(=O)N[C@@H](CCCCNC(=O)N2CCN(CC(=O)O)CC2)C(=O)N[C@@H](Cc2cn(C)c3ccccc23)C(=O)N[C@@H]([C@@H](C)O)C(=O)N[C@@H](CCC(=O)O)C(=O)N1)C(N)=O [PDC_EphA2-00008089, da-Me3Py-N-L-KCOpipzaa-MeF-W1Me-KCOpipzaa-W1Me-T-E-C-KAc-NH2] ({CH2CO}-[dA][NMe3Pal]NLK([CO-Piperazinyl(4-CH2COOH)])[NMeF][Trp(1-Me)]K([CO-Piperazinyl(4-CH2COOH)])[Trp(1-Me)]TECK(Ac)-NH2; thioether N-12) | < 1
11 | CC(=O)NCCCC[C@@H](NC(=O)[C@@H]1CSCC(=O)N[C@H](C)C(=O)N(C)[C@@H](Cc2cccnc2)C(=O)N[C@@H](CC(N)=O)C(=O)N[C@@H](CC(C)C)C(=O)N[C@@H](CCCCNC(=O)N2CCN(CC(=O)O)CC2)C(=O)N(C)[C@@H](Cc2ccccc2)C(=O)N[C@@H](Cc2cn(C)c3ccccc23)C(=O)N[C@@H](CCCCNC(=O)N2CCN(CC(=O)O)CC2)C(=O)N[C@@H](Cc2cn(C)c3ccccc23)C(=O)N[C@@H]([C@@H](C)O)C(=O)N[C@@H](CCC(=O)O)C(=O)N1)C(N)=O [PDC_EphA2-00008090, da-Me3Py-N-L-KCOpipzaa-MeF-W1Me-KCOpipzaa-W1Me-T-E-C-dkAc-NH2] ({CH2CO}-[dA][NMe3Pal]NLK([CO-Piperazinyl(4-CH2COOH)])[NMeF][Trp(1-Me)]K([CO-Piperazinyl(4-CH2COOH)])[Trp(1-Me)]TEC[dK](Ac)-NH2; thioether N-12) | < 1
